According to US5436271A, “N^6 -(hydrazinoiminomethyl)lysine and method of inhibiting nitric oxide formation in body” (Cornell Research Foundation, Inc., priority 1993, dated 1995):
Like-named read-outs stand apart in the source and are kept apart here.

Columns and labels:
[1] = target: T1, constitutive isoform of nitric oxide synthase (Rattus norvegicus, UniProt Q62600); test: Inhibition of acetylcholine relaxation of phenylephrine-contracted rat aortic rings (Example VI)
T1 construct: from tissue; host or cells: isolated rat aortic rings (2-3 mm)
T1 sequence (Q62600 2-1202 limits assumed): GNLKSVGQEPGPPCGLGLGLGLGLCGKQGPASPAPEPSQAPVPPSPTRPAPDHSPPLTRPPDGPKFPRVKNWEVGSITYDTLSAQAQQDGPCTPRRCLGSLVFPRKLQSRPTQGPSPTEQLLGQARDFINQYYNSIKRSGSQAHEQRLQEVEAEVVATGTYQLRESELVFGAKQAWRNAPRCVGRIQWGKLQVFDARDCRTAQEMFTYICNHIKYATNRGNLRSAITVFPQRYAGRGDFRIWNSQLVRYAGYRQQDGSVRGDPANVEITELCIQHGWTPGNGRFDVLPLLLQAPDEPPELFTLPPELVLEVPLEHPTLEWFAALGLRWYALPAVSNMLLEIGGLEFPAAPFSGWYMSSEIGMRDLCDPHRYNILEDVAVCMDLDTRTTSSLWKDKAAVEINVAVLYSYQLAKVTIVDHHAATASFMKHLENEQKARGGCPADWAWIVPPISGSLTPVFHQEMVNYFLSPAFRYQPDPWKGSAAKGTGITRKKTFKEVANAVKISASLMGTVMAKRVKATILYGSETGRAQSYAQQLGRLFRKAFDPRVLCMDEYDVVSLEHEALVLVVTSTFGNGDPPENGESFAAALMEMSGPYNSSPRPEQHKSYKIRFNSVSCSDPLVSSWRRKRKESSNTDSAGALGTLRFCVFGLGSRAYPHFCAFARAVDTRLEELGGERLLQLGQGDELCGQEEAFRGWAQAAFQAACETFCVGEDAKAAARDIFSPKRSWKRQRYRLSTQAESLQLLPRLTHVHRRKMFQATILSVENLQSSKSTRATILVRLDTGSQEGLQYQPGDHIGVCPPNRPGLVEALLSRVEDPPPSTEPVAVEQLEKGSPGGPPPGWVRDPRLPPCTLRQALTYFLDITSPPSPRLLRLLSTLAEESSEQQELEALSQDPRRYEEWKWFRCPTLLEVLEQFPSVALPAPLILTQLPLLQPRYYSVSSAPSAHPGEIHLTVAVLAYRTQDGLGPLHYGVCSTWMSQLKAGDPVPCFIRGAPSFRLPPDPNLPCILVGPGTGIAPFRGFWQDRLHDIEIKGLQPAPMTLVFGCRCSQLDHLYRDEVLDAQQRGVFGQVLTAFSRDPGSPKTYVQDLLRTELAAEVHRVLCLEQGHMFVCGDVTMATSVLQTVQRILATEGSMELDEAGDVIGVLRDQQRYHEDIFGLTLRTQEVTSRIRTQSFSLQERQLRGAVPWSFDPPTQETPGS
Protocol: In vitro studies with rat aortic rings were carried out to test the effect of N^6 -(hydrazinoiminomethyl)-L-lysine relative to other known inhibitors of the constitutive isoform of nitric oxide synthase. Aortic rings (2-3 mm) were isolated, suspended under a resting tension of 2.00 gm in 5 ml glass chambers containing Krebs-Henseleit solution gassed with 95% 02 and 5% CO2 at 37° C. as described previously for vascular rings from guinea pigs (O.A. Fasehun et al, (1990) J. Pharmacol. Exp. Ther. 255, 1348-1353). The aortic rings were then contracted by addition of 0.03 μM phenylephrine to the bathing solution, and the tension of the rings was measured. Acetylcholine, an agonist that stimulates the formation of nitric oxide by constitutive nitric oxide synthase in the vascular endothelium, was next added to a final concentration of 1 μM. The nitric oxide formed in response to acetylcholine causes the vascular smooth muscle of the aortic rings to relax, and the decrease in tension is measured. Inhibitors of nitric oxide synthase decrease the extent to which acetylcholine causes relaxation of the phenylephrine-contracted aortic rings. In the study, rings were contracted with phenylephrine, relaxed with acetylcholine, and then increasing doses of inhibitor were added to the bathing solution to overcome the effect of acetylcholine. The dose of inhibitor is denoted on the X-axis.

nitric oxide synthase = test: Efficacy on arterial blood pressure in endotoxin-treated anesthetized dog (Example IV); assay type: in vivo
Protocol: To test the efficacy of N^6 -(hydrazinoiminomethyl)-L-lysine, a 28 kg fasted dog was anesthetized with pentobarbital (25 mg/kg, i.v.), orotracheally intubated to allow ventilation with a Harvard pump, and instrumented to allow arterial blood pressure to be monitored via a central catheter. After a constant normal blood pressure had been observed for about 90 min., a solution containing 2 mg/kg body weight of endotoxin (E. coli lipopolysaccharide obtained from Sigma Chemical Co.) was given as an intravenous bolus injection. […] When the mean arterial blood pressure had declined to about 70 mm Hg, a bolus intravenous injection of 20 mg/kg of N^6 -(hydrazinoiminomethyl)-L-lysine monohydrochloride (denote HAA) was given. […] At that time, the dog was given a bolus intravenous injection of 400 mg/kg of L-arginine (denoted L-ARG), the substrate of nitric oxide synthase and a specific antagonist of nitric oxide synthase inhibitors competing for the L-arginine binding site.

[2] = target: T2, cytokine-induced nitric oxide synthase isozyme (Mus musculus, UniProt P29477); test: Nitrite formation by cytokine-induced cultured mouse brain endothelial cells (Example V); assay type: cell-based
T2 construct: endogenous in cells; host or cells: cultured mouse brain endothelial cells induced with gamma-interferon and tumor necrosis factor
Protocol: In vitro studies with cultured endothelial cells were carried out to test the efficacy of N^6 -(hydrazinoiminomethyl)-L-lysine as an inhibitor of the cytokine-induced nitric oxide synthase isozyme relative to established inhibitors. Cultured mouse brain endothelial cells were grown for 18 hrs. in the presence of 1000 units/ml of gamma-interferon and 5000 units/ml of tumor necrosis factor, conditions shown previously to cause enzyme induction (R. Kilbourn and P. Belloni (1990) in "Nitric Oxide from L-Arginine: A Bioregulatory System" (S. Moncada and E. A. Higgs, eds.) pp. 61-67, Elsevier Science Publishers, Amsterdam). For control cells the culture media contained 50% Dulbecco's Modified Eagle's Medium, 45% Ham's F12 Medium with 5% fetal calf serum. […] Nitric oxide formation was monitored by following the increase in the concentration of nitrite in the culture medium. Nitric oxide spontaneously oxidizes to nitrite under the incubator conditions.

[3] = Toxicity in awake dog, i.v. bolus plus infusion (Example II); assay type: in vivo
Protocol: To test the toxicity of N^6 -(hydrazinoiminomethyl)-L-lysine, a 30 kg awake dog was administered the hydrochloride salt of the drug at a dose of 20 mg/kg body weight as a single intravenous (i.v.) bolus. […] After 30 min., an additional dose of 20 mg/kg was given and an i.v. infusion of drug at a rate of 10 mg/kg body weight per hour was started. The infusion was continued for 5 hours. […] The spasms ended within 24 hours (48 hours after the experiment started), and the dog appeared normal and well in all respects.

[4] = test system: inducible isoform of nitric oxide synthase; details: cited from earlier work
[5] = design: species or system Swiss-Webster mice; details: mouse, in vivo, sc
Protocol: To test the long-term toxicity of N^6 -(hydrazinoiminomethyl)-L-lysine,0.209 ml of a 200 mM solution of the hydrochloride salt of the drug (48 mg/ml) was loaded into each of three Alzet Osmotic Pumps (Model 2001), and the pumps were implanted subcutaneously on the backs of three individual Swiss-Webster mice (wts. 30.7, 34.8 and 33.4 gms) under pentobarbital anesthesia. Each pump delivered the solution of drug at a rate of […] for 1 week.

[6] = rat aortic rings, 0.03 μM phenylephrine, 1 μM acetylcholine, read-out: concentration needed to overcome 50% of the relaxation caused by acetylcholine (ED50)
[7] = ratio of ED 50% approx., inducible isoform

## CNC(=N)NCCC[C@H](N)C(=O)O [NMMA, N^G -methyl-L-arginine]
[1]; [6]
  IC50: ~10.2 µM

## NN=C(N)NCCCCC(N)C(=O)O (racemic) [N^6 -(hydrazinoiminomethyl)-D,L-lysine, N^6 -(Hydrazinoiminomethyl)-D,L-lysine]
Nitric oxide synthase; as Example IV, twice the dosage of the L-form
  blood pressure increase compared with L-form: substantially equal results
[2]; as Example V, twice the concentration of the L-form
  inhibition of nitrite formation by induced endothelial cells compared with L-form: substantially equal results

## N=C(N)NCCC[C@H](N)C(=O)O [L-ARG, L-arginine, reference compound]
Nitric oxide synthase; endotoxin dog treated with HAA, then 400 mg/kg i.v. bolus
  blood pressure after reversal by substrate: dropped precipitously to a level characteristic of septic (endotoxic) shock

## N/N=C(\N)NCCC[C@H](N)C(=O)O [NAA, N^G -amino-L-arginine, reference compound]
[1]
  IC50: ~4.2 µM
[3]; awake dog, same dose as N6-(hydrazinoiminomethyl)-L-lysine
  toxicity at the same dose under similar circumstances: major seizures
[2]
  IC50: ~62.5 µM

## N=C(NCCC[C@H](N)C(=O)O)N[N+](=O)[O-] [NNA, N^G -nitro-L-arginine]
[1]; [6]
  IC50: ~1.5 µM
[4]
  rank as inhibitor of the inducible isoform among NNA, NAA, NMMA, HAA: least effective inhibitor of the inducible isoform

## NN=C(N)NCCCC[C@H](N)C(=O)O [HAA, N^6 -(hydrazinoiminomethyl)-L-lysine]
[1]; [6]
  IC50: ~10.3 µM
Nitric oxide synthase; endotoxin 2 mg/kg dog, mean arterial pressure about 70 mm Hg, 20 mg/kg i.v. bolus, within a few minutes
  increase of blood pressure: about 30 mm Hg
Nitric oxide synthase; endotoxin dog, after 20 mg/kg i.v. bolus
  time blood pressure remained in physiologically acceptable range: about 45 min
[3]; dog, in vivo
  late signs of toxicity: periodic isolated myoclonic muscle spasms
  time until muscle spasms ended: ≤ 24 h
[3]; dog, in vivo, iv, 20 mg/kg
  signs of toxicity: no signs of toxicity
[2]; mouse brain endothelial cells, 18 hrs with gamma-interferon 1000 units/ml and tumor necrosis factor 5000 units/ml, read-out: dose required for approximately 50% inhibition (ED 50% approx.) of nitrite formation
  IC50: ~15.6 µM
[2]; [7]
  potency relative to NAA: approximately 4 times
  potency relative to NMMA: approximately 8 times
[5]
  survival: > 4 weeks
